Data from US11306064B2, “Benzothia(di)azepine compounds and their use as bile acid modulators” (Albireo AB, priority 2018, dated 2022).

Tests used:
Type in all cases: cell-based
Human ASBT = target: T1, Human ASBT (Homo sapiens, UniProt Q12908); experiment: ASBT (h/m) assay: 3H-taurocholic acid uptake in human ASBT-overexpressing cells; settings: 0.25 μM 3H-taurocholic acid and 5 μM cold taurocholic acid, 20 minutes, read-out: hASBT IC50
T1 construct: expressed in transfected cells; kept under Puromycin selection
T1 sequence (Q12908 1-348): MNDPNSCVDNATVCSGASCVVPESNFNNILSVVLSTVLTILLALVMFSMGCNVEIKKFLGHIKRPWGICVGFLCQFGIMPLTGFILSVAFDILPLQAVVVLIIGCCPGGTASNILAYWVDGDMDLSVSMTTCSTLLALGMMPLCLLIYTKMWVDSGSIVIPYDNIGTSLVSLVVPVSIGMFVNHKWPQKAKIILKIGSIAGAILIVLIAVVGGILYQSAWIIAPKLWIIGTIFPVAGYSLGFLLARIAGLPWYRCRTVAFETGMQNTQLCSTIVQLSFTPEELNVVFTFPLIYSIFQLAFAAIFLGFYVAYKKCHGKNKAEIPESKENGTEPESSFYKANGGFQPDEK
In short: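 ASBT-overexpressing cells, seeded 48 h earlier, took up 0.25 µM 3H-taurocholic acid plus 5 µM cold taurocholate for 20 min at 37 °C with inhibitor (10-point 3-fold series, top 10 µM, 0.2% DMSO). Ice stop, washes with cold 1 mM taurocholate in HEPES-HBSS pH 7.4, scintillation counting.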

HepaRG cells = experiment: HepaRG-based assay: 3H-taurocholic acid uptake in differentiated HepaRG cells; settings: Homo sapiens, HepaRG, 0.3 μM 3H-taurocholic acid and 7.5 μM cold taurocholic acid, 30 minutes
In short: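 Differentiated HepaRG cells cultured 7 days post-seeding were exposed for 30 min at 37 °C to 0.3 μM 3H-taurocholic acid plus 7.5 μM cold taurocholic acid with inhibitor (3-fold dilutions, 0.2% DMSO). Uptake was stopped on ice, washed with 1 mM unlabelled taurocholic acid, and counted by scintillation.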

Human LBAT = target: T2, Human LBAT (Homo sapiens, UniProt Q14973); experiment: LBAT (h/m) assay: 3H-taurocholic acid uptake in human LBAT-overexpressing cells; settings: 0.3 μM 3H-taurocholic acid and 7.5 μM cold taurocholic acid, 20 minutes, read-out: hLBAT IC50
T2 construct: expressed in transfected cells; kept under Geneticin selection
T2 sequence (Q14973 1-349): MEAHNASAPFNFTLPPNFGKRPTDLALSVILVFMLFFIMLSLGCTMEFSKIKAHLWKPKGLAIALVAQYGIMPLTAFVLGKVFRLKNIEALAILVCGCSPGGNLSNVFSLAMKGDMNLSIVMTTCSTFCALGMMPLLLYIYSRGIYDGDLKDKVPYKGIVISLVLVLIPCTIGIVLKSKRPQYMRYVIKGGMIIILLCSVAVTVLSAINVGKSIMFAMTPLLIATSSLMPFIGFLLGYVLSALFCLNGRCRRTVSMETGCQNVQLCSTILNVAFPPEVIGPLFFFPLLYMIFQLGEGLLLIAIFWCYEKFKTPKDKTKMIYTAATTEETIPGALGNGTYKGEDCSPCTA
In short: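 LBAT-overexpressing cells, serum-free MEM-alpha, 20 min at 37° C with inhibitor (3-fold, 10-point) plus 0.3 μM 3H-taurocholic acid and cold taurocholic acid (7.5 μM human; 25 μM mouse), 0.2% DMSO. Stopped on ice, washed with 1 mM unlabelled taurocholate; uptake by scintillation counting.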

| IC50 (Human ASBT) [µM] | IC50 (HepaRG cells) [µM] | IC50 (Human LBAT) [µM] | SMILES |
| --- | --- | --- | --- |
| 4.8 | 0.35 | 0.046 | CCCCC1(CCCC)CN(c2ccc(NC(=O)C(C)(C)C)cc2)c2cc(SC)c(O/C=C/C(=O)O)cc2S(=O)(=O)C1 [Example 27, (E)-3-((3,3-dibutyl-7-(methylthio)-1,1-dioxido-5-(4-pivalamidophenyl)-2,3,4,5-tetrahydro-1,5-benzothiazepin-8-yl)oxy)acrylic Acid] |
| 4.45 | 0.089 | 0.013 | CCCCC1(CCCC)CN(c2ccc(NC(=O)C(C)(C)C)cc2)c2cc(SC)c(O/C=C(\F)C(=O)O)cc2S(=O)(=O)C1 [Example 28, (Z)-3-((3,3-dibutyl-7-(methylthio)-1,1-dioxido-5-(4-pivalamidophenyl)-2,3,4,5-tetrahydro-1,5-benzothiazepin-8-yl)oxy)-2-fluoroacrylic Acid] |
| 0.209 | 0.672 | 0.506 | CCCCC1(CCCC)CN(c2ccc(C(F)(F)F)cc2)c2cc(SC)c(O/C=C/C(=O)O)cc2S(=O)(=O)C1 [Example 32, (E)-3-((3,3-dibutyl-7-(methylthio)-1,1-dioxido-5-(4-(trifluoromethyl)phenyl)-2,3,4,5-tetrahydro-1,5-benzothiazepin-8-yl)oxy)acrylic Acid] |
| 2 | 0.592 | 0.045 | CCCCC1(CCCC)CN(c2ccc(NC(=O)C3CCCC3)cc2)c2cc(SC)c(O/C=C/C(=O)O)cc2S(=O)(=O)C1 [Example 37, (E)-3-((3,3-dibutyl-5-(4-(cyclopentanecarboxamido)phenyl)-7-(methylthio)-1,1-dioxido-2,3,4,5-tetrahydro-1,5-benzothiazepin-8-yl)oxy)acrylic Acid] |
| 0.796 | 0.399 | 0.075 | CCC1(CC)CN(c2ccccc2)c2cc(SC)c(O/C=C/C(=O)O)cc2S(=O)(=O)C1 [Example 39, (E)-3-((3,3-diethyl-7-(methylthio)-1,1-dioxido-5-phenyl-2,3,4,5-tetrahydro-1,5-benzothiazepin-8-yl)oxy)acrylic Acid] |
| 4.55 | 1.51 | 0.108 | CCCCC1(CCCC)CN(c2ccc(NC(=O)CCC)cc2)c2cc(SC)c(O/C=C/C(=O)O)cc2S(=O)(=O)C1 [Example 40, (E)-3-((3,3-dibutyl-5-(4-butyramidophenyl)-7-(methylthio)-1,1-dioxido-2,3,4,5-tetrahydro-1,5-benzothiazepin-8-yl)oxy)acrylic Acid] |
| 1.46 | 3.16 | 0.201 | CCCCC1(CCCC)CN(c2ccccc2)c2ccc(O/C=C(\F)C(=O)O)cc2S(=O)(=O)C1 [Example 45, (Z)-3-((3,3-dibutyl-1,1-dioxido-5-phenyl-2,3,4,5-tetrahydro-1,5-benzothiazepin-8-yl)oxy)-2-fluoroacrylic Acid] |
| 0.28 | 0.8 | 0.062 | CCCCC1(CCCC)CN(c2ccccc2)c2cc(Cl)c(O/C=C(\F)C(=O)O)cc2S(=O)(=O)C1 [Example 53, (Z)-3-((3,3-dibutyl-7-chloro-1,1-dioxido-5-phenyl-2,3,4,5-tetrahydro-1,5-benzothiazepin-8-yl)oxy)-2-fluoroacrylic Acid] |
| 0.186 | 0.26 | 0.1 | CCC1(CC)CN(c2ccccc2)c2cc(I)c(O/C=C/C(=O)O)cc2S(=O)(=O)C1 [Example 54, (E)-3-((3,3-diethyl-7-iodo-1,1-dioxido-5-phenyl-2,3,4,5-tetrahydro-1,5-benzothiazepin-8-yl)oxy)acrylic Acid] |
| 0.487 | 0.328 | 0.1 | CCC1(CC)CN(c2ccccc2)c2cc(Br)c(O/C=C/C(=O)O)cc2S(=O)(=O)C1 [Example 55, (E)-3-((7-bromo-3,3-diethyl-1,1-dioxido-5-phenyl-2,3,4,5-tetrahydro-1,5-benzothiazepin-8-yl)oxy)acrylic Acid] |
| 0.38 | 0.175 | 0.037 | CCC1(CC)CN(c2ccccc2)c2cc(Br)c(O/C=C(\F)C(=O)O)cc2S(=O)(=O)C1 [Example 56, (Z)-3-((7-bromo-3,3-diethyl-1,1-dioxido-5-phenyl-2,3,4,5-tetrahydro-1,5-benzothiazepin-8-yl)oxy)-2-fluoroacrylic Acid] |
| > 20 | 0.772 | 0.235 | CCCCC1(CC)CN(c2ccc(C(=O)NC(C)(C)C)cc2)c2cc(SC)c(O/C=C/C(=O)O)cc2S(=O)(=O)C1 (stereo not drawn) [Example 62, (E)-3-((3-butyl-5-(4-(tert-butylcarbamoyl)phenyl)-3-ethyl-7-(methylthio)-1,1-dioxido-2,3,4,5-tetrahydro-1,5-benzothiazepin-8-yl)oxy)acrylic Acid] |
| 2.76 | 0.518 | 0.03 | CCC1(CC)CN(c2ccc(NCc3ccccc3)cc2)c2cc(SC)c(O/C=C(\F)C(=O)O)cc2S(=O)(=O)C1 [Example 66, (Z)-3-((5-(4-(benzylamino)phenyl)-3,3-diethyl-7-(methylthio)-1,1-dioxido-2,3,4,5-tetrahydro-1,5-benzothiazepin-8-yl)oxy)-2-fluoroacrylic Acid] |
| 6.67 | 0.344 | 0.13 | CCCCC1(CCCC)CN(c2ccc(C(=O)NC(C)(C)C)cc2)c2cc(SC)c(O/C=C/C(=O)O)cc2S(=O)(=O)C1 [Example 68, (E)-3-((3,3-dibutyl-5-(4-(tert-butylcarbamoyl)phenyl)-7-(methylthio)-1,1-dioxido-2,3,4,5-tetrahydro-1,5-benzothiazepin-8-yl)oxy)acrylic Acid] |
| > 3 | 0.63 | 0.364 | CCCCC1(CCCC)CN(c2ccc(C(=O)NC(C)C)cc2)c2cc(SC)c(O/C=C/C(=O)O)cc2S(=O)(=O)C1 [Example 69, (E)-3-((3,3-dibutyl-5-(4-(isopropylcarbamoyl)phenyl)-7-(methylthio)-1,1-dioxido-2,3,4,5-tetrahydro-1,5-benzothiazepin-8-yl)oxy)acrylic Acid] |
| 0.125 | 0.716 | 0.081 | CCCCC1(CCCC)CN(c2ccccc2)c2cc(SCC)c(O/C=C(\F)C(=O)O)cc2S(=O)(=O)C1 [Example 70, (Z)-3-((3,3-dibutyl-7-(ethylthio)-1,1-dioxido-5-phenyl-2,3,4,5-tetrahydro-1,5-benzothiazepin-8-yl)oxy)-2-fluoroacrylic Acid] |
| > 3 | 0.296 | 0.047 | CCCCC1(CCCC)CN(c2ccc(NC(=O)CC)cc2)c2cc(SC)c(O/C=C(\F)C(=O)O)cc2S(=O)(=O)C1 [Example 71, (Z)-3-((3,3-dibutyl-7-(methylthio)-1,1-dioxido-5-(4-propionamidophenyl)-2,3,4,5-tetrahydro-1,5-benzothiazepin-8-yl)oxy)-2-fluoroacrylic Acid] |

| SMILES | IC50 (Human ASBT) [µM] | IC50 (HepaRG cells) [µM] | IC50 (Human LBAT) [µM] |
| --- | --- | --- | --- |
| CCCCC1(CCCC)CN(c2ccc(NC(=O)OC(C)(C)C)cc2)c2cc(SC)c(O/C=C(\F)C(=O)O)cc2S(=O)(=O)C1 [Example 26, (Z)-3-((5-(4-((tert-butoxycarbonyl)amino)phenyl)-3,3-dibutyl-7-(methylthio)-1,1-dioxido-2,3,4,5-tetrahydro-1,5-benzothiazepin-8-yl)oxy)-2-fluoroacrylic Acid] | 3.24 | 0.477 | 0.053 |
